From patent US5238964A, “Agent for treatment of cerebrovascular contraction” (Torii & Co., Ltd., priority 1990, dated 1993)

Assays:
plasmin = conditions: fibrinolytic system; cited from earlier work
factor Xa = conditions: coagulation system; cited from earlier work
thrombin = conditions: coagulation system; cited from earlier work
[1] = test system: factor B of complement system; conditions: cited from earlier work
platelet agglutination = conditions: cited from earlier work
C 1r = conditions: complement system; cited from earlier work
trypsin = conditions: cited from earlier work
[2] = test system: circulating blood coagulating action; assay: bleeding and coagulation times measured during intravenous administration in treated groups B and C; format: in vivo, human (patients)
Source text: The present compound is a serine protease inhibitor which can inhibit various kinds of serine protease including C 1r, C 1s, factor B and factor D of complement system, factor XIIa, factor Xa and thrombin of coagulation system, plasma kallikrein of quinine system, plasmin of fibrinolytic system, trypsin, etc. […] It was considered that the administration method employed in this experiment would give no influence on circulating blood coagulating action of the compound.

[3] = test system: factor D of complement system; conditions: cited from earlier work
[4] = intermittent intravenous administration to subarachnoid bleeding patients after acute phase operation (DIND, CT low, Angiographic Spasm Scale, Glasgow Outcome Scale); format: in vivo, human (patients); conditions: for CT low due to spasm: control 43%; for good recovery (Glasgow Outcome Scale) / vegetative survival+death (Glasgow Outcome Scale): control 36%
Method: We have tried intermittent intravenous administration of FUT-175 (nafamostat mesilate, the present compound) for the purpose of prevention and/or treatment of cerebrovascular contraction after acute phase operation on subarachnoid bleeding patients. A dosage of 40-160 mg/day was chosen by converting the amount of drug per kg rabbit weight to amount of drug per kg of human weight.
The subjects were the ruptured cerebral aneurysm patients who had acute phase operation and belonged to Group 3 or 4 in Fisher's preoperative CT classification (Fisher, C. M., et al., "Cerebral vasospasm with ruptured saccular aneurysm-Clinical manifestations" (1977), Neurosurgery, volume 1, pages 245-248). […] Also, the subjects were limited to the cases of Grades II-IV in Hunt and Hess gravity grating without modification by previous history and to the patients to whom administration could be started within 48 hours after crisis (Hunt, W. E., et al., "Surgical risk as related to time of intervention in the repair of intracranial aneurysms" (1968), J. Neurosurg., volume 28, pages 14-20).
The compound was given to the subjects by intermittent intravenous administration starting immediately after operation. In Group A, the compound was administered twice a day, 20 mg per administration (40 mg in total daily dosage) for 4 days; four times a day, 20 mg per administration (80 mg in total daily dosage) for 4 days in Group B; and four times a day, 40 mg per administration (160 mg in total daily dosage) for 4 days in Group C. Each dose of the compound was dissolved in 100 ml of physiological saline. Time of one intravenous administration was normally 2 hours.
The control cases were the serious subarachnoid bleeding patients after acute phase clipping operation performed in our clinic in 1989. Both groups were substantially commensurate with each other in gravity grating and CT classification (Fisher classification by computed tomography), but in the control group there were slightly more cases of mycotic cerebral aneurysm than in the treated group.
There was no difference between the control and treated groups in substances of treatment excepting administration of the present compound and in operating staff. The effect of the treatment was judged by occurrence or non-occurrence of delayed ischemic neurological deficit (DIND), low-density CT area due to vasospasm and caliber change in arteries as observed by cerebral angiography conducted in the period from day 5 to day 8 (post occurrence of cerebrovascular contraction) which is considered the peak period of development of vasospasm.
For judgement of spasm in the control group, an Angiographic Spasm Scale (ASS) of the following grading was prepared:
Grade 0 (none): No caliber change in any arteries,
Grade 1 (mild): Vascular contraction is localized,
Grade 2 (moderate): Multisegmental vascular contraction is observed, and
Grade 3 (severe): Severe contraction exceeding 50% is seen in multisegmental sites (Weir, B., et al., "Time course of vasospasm in man" (1978), J. Neurosurg., volume 48, pages 173-178; Kim, H., et al., "Time course of vasospasm--Its clinical significance" (1979), Neuro. Med. Chir. (Tokyo), volume 19, pages 95-102).
The Glasgow Outcome Scale (GOS) was used to evaluate the outcome one month after crisis. According to GOS, there are five degrees: 1-death, 2-vegetative state, 3-severe disability, 4-moderate disability, 5-good recovery.

factor XIIa = conditions: coagulation system; cited from earlier work
[5] = cited from earlier work
C 1s = conditions: complement system; cited from earlier work
plasma kallikrein = conditions: quinine system; cited from earlier work
[6] = experimental subarachnoid bleeding in rabbits, basal arteria thickness ratio; format: in vivo, rabbit; conditions: for Basal arteria thickness ratio: after vs before subarachnoid bleeding; for suppression of cerebrovascular contraction subsequent to subarachnoid bleeding: rabbits, i.v.
Method: By injecting previously collected blood into the postcisterna of a rabbit, subarachnoid bleeding similar to human subarachnoid bleeding can be produced experimentally in the rabbit. The therapeutic effect of a pharmaceutical composition for treating cerebrovascular contraction is judged by comparing the thickness of the basal arteria before and after the experimental production of subarachnoid bleeding.
Subarachnoid bleeding was produced experimentally in rabbits, and 20 minutes thereafter 3 mg, 6 mg and 9 mg of 6-amidino-2-naphthyl p-guanidinobenzoate dimethanesulfonate [drawing 12] were respectively administered intravenously to the rabbits.

[7] = Groups A, B and C, one month after crisis
[8] = Groups B and C (higher dosage), one month after crisis
[9] = after serious subarachnoid bleeding

## CS(=O)(=O)O.CS(=O)(=O)O.N=C(N)Nc1ccc(C(=O)Oc2ccc3cc(C(=N)N)ccc3c2)cc1 [6-amidino-2-naphthyl p-guanidinobenzoate dimethanesulfonate]
plasmin
  inhibition of plasmin: can inhibit
Factor Xa
  inhibition of factor Xa: can inhibit
thrombin
  inhibition of thrombin: can inhibit
[1]
  inhibition of factor B: can inhibit
Platelet agglutination
  platelet agglutination inhibiting action: concentration dependent platelet agglutination inhibiting action
C 1r
  inhibition of C 1r: can inhibit
trypsin
  inhibition of trypsin: can inhibit
[2]
  activated partial thromboplastin time (APTT): in the normal ranges
  bleeding time: in the normal ranges
  coagulation time: in the normal ranges
  prothrombin time (PT): in the normal ranges
[3]
  inhibition of factor D: can inhibit
[4]; Group A, 40 mg/day for 4 days
  CT-low attributable to DIND: 2 out of 9
  cases at grade 1 of ASS: 3 cases
  cases at grade 2 of ASS: 3 cases
  cases at grade 3 of ASS: 3 cases
  incidence of DIND: 2 out of 9
[4]; Group B, 80 mg/day for 4 days
  cases at grade 0 (no caliber change in any arteries): 4 cases
  cases at grade 1 of ASS: 3 cases
  cases at grade 3 of ASS: one
  incidence of DIND: one out of 9
  low density area on CT scan: no case
[4]; Group C, 160 mg/day for 4 days
  incidence of DIND: no case
[4]; Group C, 160 mg/day for 4 days, one month after crisis
  good in GOS (Glasgow Outcome Scale): 4 out of 5
[4]; Groups A, B and C
  subjects with no change or mild degree of contraction (angiographic spasm grading): 64%
  CT low due to spasm: 9%
[4]; Groups A, B and C combined
  ASS Grade 3 (severe): 18%
[4]; Groups A, B and C, control 55%
  incidence of DIND: 13%
[4]; [7]
  good recovery (Glasgow Outcome Scale): 65%
  vegetative survival+death (Glasgow Outcome Scale): 9%
[4]; Groups B and C (higher dosage)
  ASS Grade 3 (severe): 8%
  subjects mild or none in degree of contraction (angiographic spasm grading): 85%
  CT low due to spasm: 0%
[4]; Groups B and C (higher dosage), control 55%
  incidence of DIND: 7%
[4]; [8]
  good recovery (Glasgow Outcome Scale): 71%
  vegetative survival+death (Glasgow Outcome Scale): 0%
[4]; [9]
  inhibition of incidence of delayed ischemic neurological deficit: could inhibit incidence of delayed ischemic neurological deficit
  prognosis of the patient: improve the prognosis of the patient
Factor XIIa
  inhibition of factor XIIa: can inhibit
[5]; in vivo
  passage into tissue: quickly passes into tissue
[5]; α phase
  half-life period in blood, α phase: 1.1 min
[5]; β phase
  half-life period in blood, β phase: 23.1 min
C 1s
  inhibition of C 1s: can inhibit
Plasma kallikrein
  inhibition of plasma kallikrein: can inhibit
[6]; 3 mg/kg i.v., 1st day
  Basal arteria thickness ratio: 86%
[6]; 3 mg/kg i.v., 2nd day
  Basal arteria thickness ratio: 79%
[6]; 3 mg/kg i.v., 3rd day
  Basal arteria thickness ratio: 85%
[6]; 3 mg/kg i.v., 4th day
  Basal arteria thickness ratio: 88%
[6]; 3 mg/kg i.v., 5th day
  Basal arteria thickness ratio: 90%
[6]; 6 mg/kg i.v., 1st day
  Basal arteria thickness ratio: 97%
[6]; 6 mg/kg i.v., 2nd day
  Basal arteria thickness ratio: 95%
[6]; 6 mg/kg i.v., 3rd day
  Basal arteria thickness ratio: 95%
[6]; 6 mg/kg i.v., 4th day
  Basal arteria thickness ratio: 96%
[6]; 6 mg/kg i.v., 5th day
  Basal arteria thickness ratio: 101%
[6]
  suppression of cerebrovascular contraction subsequent to subarachnoid bleeding: clearly suppressed the cerebrovascular contraction

## CS(=O)(=O)O.N=C(N)Nc1ccc(C(=O)Oc2ccc(SCCN3C(=O)CCC3=O)cc2)cc1 [4-(2-succinimidoethylthio)phenyl 4-guanidinobenzoate methanesulfonate]
[6]
  suppression of cerebrovascular contraction subsequent to subarachnoid bleeding: clearly suppressed the cerebrovascular contraction subsequent to subarachnoid bleeding, showing the same effect as that of the compound used in Example 1
